Measured values reported in PubChem BioAssay (NCI).
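Tested at 5 concentrations; 48 h exposure; 96-well plates; endpoints linearly interpolated, else capped at highest concentration. Definition used: TGI = concentration required for complete inhibition of growth.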

Assays:
Assay in all cases: NCI tumour cell line growth inhibition, 48 h
NCI/ADR-RES ovarian = test system: NCI/ADR-RES ovarian
OVCAR-8 ovarian = test system: OVCAR-8 ovarian
HL-60(TB) leukemia = test system: HL-60(TB) leukemia
UO-31 renal = test system: UO-31 renal
COLO 205 colon = test system: COLO 205 colon
A498 renal = test system: A498 renal
NCI-H522 lung = test system: NCI-H522 lung
NCI-H460 lung = test system: NCI-H460 lung
EKVX NSCLC = test system: EKVX NSCLC
BT-549 breast = test system: BT-549 breast

Row | SMILES | TGI (NCI/ADR-RES ovarian) | TGI (OVCAR-8 ovarian) | TGI (HL-60(TB) leukemia) | TGI (UO-31 renal) | TGI (COLO 205 colon) | TGI (A498 renal) | TGI (NCI-H522 lung) | TGI (NCI-H460 lung) | TGI (EKVX NSCLC) | TGI (BT-549 breast)
1 | CC(C)(C)c1cc(C(=O)C2Cc3ccccc3C(=O)O2)cc(C(C)(C)C)c1O (stereo not given) | 50.5 µM | 33.3 µM | 35 µM | 23.2 µM | 33.1 µM | 26.7 µM | 27.8 µM | 23.1 µM | 25.9 µM | 42.6 µM
2 | NC(=S)Nc1ccc2c(c1)oc1ccccc12 | > 100 µM | > 100 µM | > 100 µM | > 100 µM | > 100 µM | > 100 µM | > 100 µM | > 100 µM | > 100 µM | > 100 µM
3 | COCCOC(C)C(=O)C(O)S(=O)(=O)O (stereo not given) | > 100 µM | > 100 µM | > 100 µM | > 100 µM | > 100 µM | > 100 µM | > 100 µM | > 100 µM | > 100 µM | > 100 µM
4 | C=CCOC(=O)c1c(C)n([O-])c2cc(Cl)c(Cl)cc2[n+]1=O | 46.9 µM | 41.9 µM | 48.7 µM | 59.8 µM | 32.6 µM | 62.6 µM | 28.1 µM | 42.3 µM | 41.1 µM | 75.3 µM
5 | O=C(N/N=C\c1cccs1)c1ccncc1 | > 100 µM | > 100 µM | > 100 µM | > 100 µM | > 100 µM | > 100 µM | > 100 µM | > 100 µM | > 100 µM | > 100 µM
6 | N#C/C=c1/c2ccccc2n2nc3ccccc3c12 | > 100 µM | > 100 µM | > 100 µM | > 100 µM | 85.3 µM | 70.3 µM | 38 µM | > 100 µM | > 100 µM | > 100 µM
7 | CC(C)NCC(O)c1ccc(O)c2ncccc12 (stereo not given) | 92.5 µM | > 100 µM | > 100 µM | > 100 µM | 36.4 µM | > 100 µM | > 100 µM | > 100 µM | > 100 µM | > 100 µM
8 | N#CCCN(CCC#N)c1ccc(/C=C2\SC(=S)NC2=O)cc1 | > 100 µM | > 100 µM | > 100 µM | > 100 µM | > 100 µM | > 100 µM | > 100 µM | > 100 µM | > 100 µM | 84.3 µM
9 | COC1=CC(=O)c2c(cc(COP(N)(=O)N(CCCl)CCCl)n2C)C1=O (stereo not given) | 19.8 µM | 3.2 µM | 3.89 µM | 2.65 µM | 3.08 µM | 5.39 µM | 0.802 µM | 4.31 µM | 1.62 µM | 2.14 µM
10 | Oc1cc(Cl)cc2cc(Cl)cnc12 | 6.67 µM | > 100 µM | 0.902 µM | 20.5 µM | > 100 µM | 34.5 µM | 24.3 µM | 14 µM | 10.6 µM | > 100 µM
11 | C=C1C(=O)[C@]23C[C@H]1C[C@@H](O)[C@H]2[C@]1(COC3=O)[C@@H](OC(C)=O)CC[C@@](C)(COC(C)=O)[C@H]1C=O | > 50 µM | > 50 µM | 16.6 µM | > 50 µM | 16.4 µM | > 50 µM | 14.6 µM | > 50 µM | > 50 µM | > 50 µM
12 | Cc1ccc(S(=O)(=O)/N=C2/N(C)CCCS2(=O)=O)cc1 | > 100 µM | > 100 µM | > 100 µM | > 100 µM | > 100 µM | > 100 µM | > 100 µM | > 100 µM | > 100 µM | > 100 µM
